# Source: patent US20150376172A1, “FLUORO-[1,3]OXAZINES AS BACE1 INHIBITORS” (HOFFMANN-LA ROCHE INC., priority 2013, published 2015)
# pIC50: −log10 of the molar value.
# Target: T1, BACE1 (Homo sapiens, UniProt P56817)
# T1 construct: endogenous in cells; host or cells: HEK293 APP cells
# Test: Cellular Aβ-lowering assay (Abeta 40 AlphaLISA)
# Format: cell-based
# Conditions: HEK293 APP cells; 18-20 hrs incubation; Aβ 40 in culture supernatants by AlphaLISA; read-out: BACE1 cell act. Aβ40 IC50
# Protocol: Cellular Aβ-lowering assay:
# The Abeta 40 AlphaLISA Assay can be used. The HEK293 APP cells were seeded in 96 well Microtiter plates in cell culture medium (Iscove's, plus 10% (v/v) fetal bovine serum, penicillin/streptomycin) to about 80% confluency and the compounds were added at a 3× concentration in ⅓ volume of culture medium (final DMSO concentration was kept at 1% v/v). After 18-20 hrs incubation at 37° C. and 5% CO2 in a humidified incubator, the culture supernatants were harvested for the determination of Aβ 40 concentrations using Perkin-Elmer Human Amyloid beta 1-40 (high specificity) Kit (Cat#AL275C).
# In a Perkin-Elmer White Optiplate-384 (Cat#6007290), 2 ul culture supernatants were combined with 2 μl of a 10× AlphaLISA Anti-hAβAcceptor beads+Biotinylated Antibody Anti-Aβ1-40 Mix (50 μg/mL/5 nM). After 1 hour room temperature incubation, 16 μl of a 1.25× preparation of Streptavidin (SA) Donor beads (25 μg/mL) were added and incubated for 30 minutes in the Dark. Light Emission at 615 nm was then recorded using EnVision-Alpha Reader. Levels of Aβ 40 in the culture supernatants were calculated as percentage of maximum signal (cells treated with 1% DMSO without inhibitor). The IC50 values were calculated using the Excel XLfit software.
# T1 sequence (P56817 46-501): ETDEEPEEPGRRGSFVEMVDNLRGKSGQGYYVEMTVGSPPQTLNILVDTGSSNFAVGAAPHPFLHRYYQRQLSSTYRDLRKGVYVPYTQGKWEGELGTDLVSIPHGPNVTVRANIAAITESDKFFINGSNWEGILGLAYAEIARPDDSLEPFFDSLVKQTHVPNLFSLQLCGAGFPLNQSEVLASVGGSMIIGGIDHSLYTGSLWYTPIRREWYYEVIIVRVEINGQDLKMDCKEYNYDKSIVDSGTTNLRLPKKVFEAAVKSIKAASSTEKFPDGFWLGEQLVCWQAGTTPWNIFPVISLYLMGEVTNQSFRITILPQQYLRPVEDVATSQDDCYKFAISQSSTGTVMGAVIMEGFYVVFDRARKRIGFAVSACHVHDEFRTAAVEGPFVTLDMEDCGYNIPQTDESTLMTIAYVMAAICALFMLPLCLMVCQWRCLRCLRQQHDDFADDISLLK
row,pIC50,SMILES
1,8.70,"C[C@]1(c2cc(NC(=O)c3ccc(C#N)cn3)ccc2F)N=C(N)O[C@H](C(F)(F)F)[C@@H]1OCC(F)(F)F [Example 8, N-(3-((4R,5R,6S)-2-Amino-4-methyl-5-(2,2,2-trifluoroethoxy)-6-(trifluoromethyl)-5,6-dihydro-4H-1,3-oxazin-4-yl)-4-fluorophenyl)-5-cyanopicolinamide]"
2,6.72,"C[C@@]1(c2cc(-c3cncnc3)c(F)cc2F)C[C@@H](C(F)(F)F)OC(N)=N1 [Example 17, (4S,6S)-4-(2,4-Difluoro-5-(pyrimidin-5-yl)phenyl)-4-methyl-6-(trifluoromethyl)-5,6-dihydro-4H-1,3-oxazin-2-amine]"
3,6.60,"CC#Cc1cncc(-c2ccc(F)c([C@]3(C)C[C@@H](C(F)(F)F)OC(N)=N3)c2)c1 [Example 14, (4S,6S)-4-(2-Fluoro-5-(5-(prop-1-ynyl)pyridin-3-yl)phenyl)-4-methyl-6-(trifluoromethyl)-5,6-dihydro-4H-1,3-oxazin-2-amine]"
4,7.48,"C[C@@]1(c2cc(NC3CCc4cc(C#N)cnc43)ccc2F)C[C@@H](C(F)(F)F)OC(N)=N1 (stereo partly drawn) [Example 36, 7-(3-((4S,6S)-2-Amino-4-methyl-6-(trifluoromethyl)-5,6-dihydro-4H-1,3-oxazin-4-yl)-4-fluorophenylamino)-6,7-dihydro-5H-cyclopenta[b]pyridine-3-carbonitrile]"
5,6.24,"CC#Cc1cncc(-c2cc([C@]3(C)C[C@@H](C(F)(F)F)OC(N)=N3)c(F)cc2F)c1 [Example 19, (4S,6S)-4-(2,4-Difluoro-5-(5-(prop-1-ynyl)pyridin-3-yl)phenyl)-4-methyl-6-(trifluoromethyl)-5,6-dihydro-4H-1,3-oxazin-2-amine]"
6,6.33,"C[C@@]1(c2cc(C#Cc3cccnc3)ccc2F)C[C@@H](C(F)(F)F)OC(N)=N1 [Example 22, (4S,6S)-4-(2-Fluoro-5-(pyridin-3-ylethynyl)phenyl)-4-methyl-6-(trifluoromethyl)-5,6-dihydro-4H-1,3-oxazin-2-amine]"
7,6.28,"COc1cc(C#N)cnc1C#Cc1ccc(F)c([C@]2(CF)C[C@@H](C(F)(F)F)OC(N)=N2)c1 [Example 57, 6-((3-((4S,6S)-2-Amino-4-(fluoromethyl)-6-(trifluoromethyl)-5,6-dihydro-4H-1,3-oxazin-4-yl)-4-fluorophenyl)ethynyl)-5-methoxynicotinonitrile]"
8,7.24,"C[C@]1(c2cc(NC(=O)c3cnc(C(F)F)cn3)ccc2F)N=C(N)O[C@H](C(F)(F)F)[C@@H]1F [Example 6, N-(3-((4R,5R,6S)-2-Amino-5-fluoro-4-methyl-6-(trifluoromethyl)-5,6-dihydro-4H-1,3-oxazin-4-yl)-4-fluorophenyl)-5-(difluoromethyl)pyrazine-2-carboxamide]"
9,6.92,"C[C@@]1(c2cc(-c3cccnc3F)c(F)cc2F)C[C@@H](C(F)(F)F)OC(N)=N1 [Example 18, (4S,6S)-4-(2,4-Difluoro-5-(2-fluoropyridin-3-yl)phenyl)-4-methyl-6-(trifluoro-methyl)-5,6-dihydro-4H-1,3-oxazin-2-amine]"
10,6.31,"C[C@]1(c2cc(NC(=O)c3ccc(Cl)cn3)ccc2F)N=C(N)O[C@@H](C(F)(F)F)[C@@H]1F [Example 3, N-(3-((4R,5R,6R)-2-Amino-5-fluoro-4-methyl-6-(trifluoromethyl)-5,6-dihydro-4H-1,3-oxazin-4-yl)-4-fluorophenyl)-5-chloropicolinamide]"
11,5.79,"NC1=N[C@](CF)(c2cc(-c3nc4ccc(Cl)cc4o3)ccc2F)C[C@@H](C(F)(F)F)O1 [Example 45, (4S,6S)-4-(5-(6-Chlorobenzo[d]oxazol-2-yl)-2-fluorophenyl)-4-(fluoromethyl)-6-(trifluoromethyl)-5,6-dihydro-4H-1,3-oxazin-2-amine]"
12,5.69,"C[C@@]1(c2cc(CCc3ccc(C#N)cn3)ccc2F)C[C@@H](C(F)(F)F)OC(N)=N1 [Example 44, 6-(3-((4S,6S)-2-Amino-4-methyl-6-(trifluoromethyl)-5,6-dihydro-4H-1,3-oxazin-4-yl)-4-fluorophenethyl)nicotinonitrile]"
13,5.25,"COc1ncc(C#Cc2ccc(F)c([C@]3(C)C[C@@H](C(F)(F)F)OC(N)=N3)c2)cn1 [Example 53, (4S,6S)-4-[2-fluoro-5-[2-(2-methoxypyrimidin-5-yl)ethynyl]phenyl]-4-methyl-6-(trifluoromethyl)-5,6-dihydro-1,3-oxazin-2-amine]"
14,5.93,"C[C@@]1(c2cc(C#Cc3cncc(Cl)c3)ccc2F)C[C@@H](C(F)(F)F)OC(N)=N1 [Example 55, (4S,6S)-4-(5-((5-chloropyridin-3-yl)ethynyl)-2-fluorophenyl)-4-methyl-6-(trifluoromethyl)-5,6-dihydro-4H-1,3-oxazin-2-amine]"
15,8.70,"CC#CCOc1cnc(C(=O)Nc2ccc(F)c([C@@]3(C)N=C(N)O[C@H](C(F)(F)F)[C@@H]3F)c2)cn1 [Example 7, N-(3-((4R,5R,6S)-2-Amino-5-fluoro-4-methyl-6-(trifluoromethyl)-5,6-dihydro-4H-1,3-oxazin-4-yl)-4-fluorophenyl)-5-(but-2-ynyloxy)pyrazine-2-carboxamide]"
16,6.02,"C[C@@]1(c2cc(-c3cncc(Cl)n3)ccc2F)C[C@@H](C(F)(F)F)OC(N)=N1 [Example 15, (4S,6S)-4-(5-(6-Chloropyrazin-2-yl)-2-fluorophenyl)-4-methyl-6-(trifluoromethyl)-5,6-dihydro-4H-1,3-oxazin-2-amine]"
17,5.96,"C[C@@]1(c2cc(-c3cnn(C(F)F)c3)ccc2F)C[C@@H](C(F)(F)F)OC(N)=N1 [Example 16, (4S,6S)-4-(5-(1-(Difluoromethyl)-1H-pyrazol-4-yl)-2-fluorophenyl)-4-methyl-6-(trifluoromethyl)-5,6-dihydro-4H-1,3-oxazin-2-amine]"
18,7.92,"COc1cnc(C(=O)Nc2ccc(F)c([C@@]3(C)N=C(N)O[C@H](C(F)(F)F)[C@@H]3F)c2)cn1 [Example 5, N-(3-((4R,5R,6S)-2-Amino-5-fluoro-4-methyl-6-(trifluoromethyl)-5,6-dihydro-4H-1,3-oxazin-4-yl)-4-fluorophenyl)-5-methoxypyrazine-2-carboxamide]"
19,6.19,"N#Cc1ccc(C#Cc2ccc(F)c([C@]3(CF)C[C@@H](C(F)(F)F)OC(N)=N3)c2)cc1 [Example 60, 4-((3-((4S,6S)-2-Amino-4-(fluoromethyl)-6-(trifluoromethyl)-5,6-dihydro-4H-1,3-oxazin-4-yl)-4-fluorophenyl)ethynyl)benzonitrile]"
20,6.10,"N#Cc1cnc(C#Cc2ccc(F)c([C@]3(CF)C[C@@H](C(F)(F)F)OC(N)=N3)c2)c(Cl)c1 [Example 59, 6-((3-((4S,6S)-2-Amino-4-(fluoromethyl)-6-(trifluoromethyl)-5,6-dihydro-4H-1,3-oxazin-4-yl)-4-fluorophenyl)ethynyl)-5-chloronicotinonitrile]"
21,5.78,"C[C@@]1(c2cc(C#Cc3cncc(C#N)c3)ccc2F)C[C@@H](C(F)(F)F)OC(N)=N1 [Example 56, 5-[2-[3-[(4S,6S)-2-amino-4-methyl-6-(trifluoromethyl)-5,6-dihydro-1,3-oxazin-4-yl]-4-fluorophenyl]ethynyl]pyridine-3-carbonitrile]"
22,7.23,"C[C@@]1(c2cc(C#Cc3ccc(C#N)cn3)ccc2F)C[C@@H](C(F)(F)F)OC(N)=N1 [Example 21, 6-((3-((4S,6S)-2-Amino-4-methyl-6-(trifluoromethyl)-5,6-dihydro-4H-1,3-oxazin-4-yl)-4-fluorophenyl)ethynyl)nicotinonitrile]"
